Experimental data published in patent US20080262082A1, “COMPOSITION CONTAINING S-(-)-TULIPALIN B OR ACETYLATED-S-(-)-TULIPALIN B” (BIO SPECTRUM, INC., priority 2007, published 2008).
Read-outs that look alike come from different tables or passages of the source.

Experiments:
Type in all cases: cell-based
[1] = tested on: Legionella pneumophila KCCM 41779; details: L. pneumophila
[2] = tested on: Aeromonas salmonicida KCTC 12266; assay: Agar diffusion antibacterial test (aerobic); details: A. salmonicida
[3] = tested on: Escherichia coli KCTC 1039; assay: Agar diffusion antibacterial test (aerobic); details: E. coli
[4] = tested on: Pseudomonas aeruginosa KCTC 1637; assay: Agar diffusion antibacterial test (aerobic); details: P. aeruginosa
[5] = tested on: Actiinobacillus ureae KCTC 2674; assay: MIC by broth dilution method; details: A. ureae, 37° C., 24 hours
[6] = tested on: Yersinia enterocolitica KCCM 41657; assay: Agar diffusion antibacterial test (aerobic); details: Y. enterocolitica
[7] = tested on: Clostridium perfringens KCCM 12098; details: C. perfringens; broth dilution, 37° C., 24 hours
[8] = tested on: Bacillus subtilis KCTC 1021; assay: Agar diffusion antibacterial test (aerobic); details: B. subtilis
[9] = tested on: Moraxella catarrhalis KCCM 40056; assay: MIC by broth dilution method; details: M. catarrhalis, 37° C., 24 hours
[10] = tested on: Helicobacter pylori KCTC 5335; assay: MIC by broth dilution method; details: H. pylori, 37° C., 24 hours
[11] = tested on: Actiinobacillus ureae KCTC 2674; assay: Agar diffusion antibacterial test (aerobic); details: A. ureae
[12] = tested on: Staphylococcus aureus KCTC 1916; assay: Agar diffusion antibacterial test (aerobic); details: S. aureus
[13] = tested on: Vibrio parahaemolyticus KCTC 27; assay: Agar diffusion antibacterial test (aerobic); details: V. parahaemolyticus
[14] = tested on: Shigella flexneri KCTC 2517; assay: Agar diffusion antibacterial test (aerobic); details: S. flexneri
[15] = tested on: Clostridium dificile KCCM 12115; assay: MIC by broth dilution method; details: C. difficile, 37° C., 24 hours
[16] = tested on: Neisseria meningitidis KCCM 41562; assay: MIC by broth dilution method; details: N. meningitidis, 37° C., 24 hours
[17] = tested on: 8 anaerobic bacterial species; assay: Agar diffusion antibacterial test, overall (anaerobic); details: 8 anaerobic bacterial spp, agar diffusion
[18] = tested on: Listeria monocytogenes KCTC 3569; assay: Agar diffusion antibacterial test (aerobic); details: L. monocytogenes
[19] = tested on: Bacillus subtilis KCTC 1021; assay: MIC by broth dilution method; details: B. subtilis, 37° C., 24 hours
[20] = tested on: Listeria monocytogenes KCTC 3569; assay: MIC by broth dilution method; details: L. monocytogenes, 37° C., 24 hours
[21] = tested on: Campylobacter jejuni KCTC 5327; assay: MIC by broth dilution method; details: C. jejuni, 37° C., 24 hours
[22] = tested on: Propionibacterium granulosum ATCC 25564; assay: Agar diffusion antibacterial test (anaerobic); details: P. granulosum
[23] = tested on: Campylobacter jejuni KCTC 5327; assay: Agar diffusion antibacterial test (anaerobic); details: C. jejuni
[24] = tested on: Salmonella enteritidis KCTC 12400; assay: Agar diffusion antibacterial test (aerobic); details: S. enteritidis
[25] = tested on: Corynebacterium glutamicum KCTC 1445; assay: MIC by broth dilution method; details: C. glutamicum, 37° C., 24 hours
[26] = tested on: Clostridium dificile KCCM 12115; assay: Agar diffusion antibacterial test (anaerobic); details: C. difficile
[27] = tested on: Bacteroides fragilis KCTC 3688; assay: MIC by broth dilution method; details: B. fragilis, 37° C., 24 hours
[28] = tested on: Neisseria meningitidis KCCM 41562; assay: Agar diffusion antibacterial test (aerobic); details: N. meningitidis

## C=C1C(=O)OC[C@H]1O [S-(−)-tulipalin B, (4S)-4-hydroxy-3-methylene-oxolan-2-one]
[1]; treatment concentration 0.03%
  Inhibitory zone diameter: 11 mm
[1]; treatment concentration 0.1%
  Inhibitory zone diameter: 12 mm
[1]; treatment concentration 0.3%
  Inhibitory zone diameter: 16 mm
[1]; treatment concentration 1.0%
  Inhibitory zone diameter: 18 mm
[2]; treatment concentration 0.01%
  Inhibitory zone diameter: 11 mm
[2]; treatment concentration 0.03%
  Inhibitory zone diameter: 12 mm
[2]; treatment concentration 0.1%
  Inhibitory zone diameter: 13 mm
[2]; treatment concentration 0.3%
  Inhibitory zone diameter: 17 mm
[2]; treatment concentration 1.0%
  Inhibitory zone diameter: 19 mm
[3]; treatment concentration 0.01%
  Inhibitory zone diameter: 10.5 mm
[3]; treatment concentration 0.03%
  Inhibitory zone diameter: 11.5 mm
[3]; treatment concentration 0.1%
  Inhibitory zone diameter: 13 mm
[3]; treatment concentration 0.3%
  Inhibitory zone diameter: 16 mm
[3]; treatment concentration 1.0%
  Inhibitory zone diameter: 20 mm
[4]; treatment concentration 0.3%
  Inhibitory zone diameter: 12 mm
[4]; treatment concentration 1.0%
  Inhibitory zone diameter: 14 mm
[5]
  MIC: 0.03%
[6]; treatment concentration 0.03%
  Inhibitory zone diameter: 11.5 mm
[6]; treatment concentration 0.1%
  Inhibitory zone diameter: 13 mm
[6]; treatment concentration 0.3%
  Inhibitory zone diameter: 17 mm
[6]; treatment concentration 1.0%
  Inhibitory zone diameter: 19 mm
[7]
  MIC: 0.08%
[8]; treatment concentration 0.03%
  Inhibitory zone diameter: 11 mm
[8]; treatment concentration 0.1%
  Inhibitory zone diameter: 13 mm
[8]; treatment concentration 0.3%
  Inhibitory zone diameter: 15 mm
[8]; treatment concentration 1.0%
  Inhibitory zone diameter: 17 mm
[9]
  MIC: 0.03%
[10]
  MIC: 0.01%
[11]; treatment concentration 0.03%
  Inhibitory zone diameter: 11 mm
[11]; treatment concentration 0.1%
  Inhibitory zone diameter: 12 mm
[11]; treatment concentration 0.3%
  Inhibitory zone diameter: 17 mm
[11]; treatment concentration 1.0%
  Inhibitory zone diameter: 19 mm
[12]; treatment concentration 0.1%
  Inhibitory zone diameter: 12 mm
[12]; treatment concentration 0.3%
  Inhibitory zone diameter: 15 mm
[12]; treatment concentration 1.0%
  Inhibitory zone diameter: 18 mm
[13]; treatment concentration 0.01%
  Inhibitory zone diameter: 11 mm
[13]; treatment concentration 0.03%
  Inhibitory zone diameter: 13 mm
[13]; treatment concentration 0.1%
  Inhibitory zone diameter: 14 mm
[13]; treatment concentration 0.3%
  Inhibitory zone diameter: 18 mm
[13]; treatment concentration 1.0%
  Inhibitory zone diameter: 19 mm
[14]; treatment concentration 0.03%
  Inhibitory zone diameter: 10.5 mm
[14]; treatment concentration 0.1%
  Inhibitory zone diameter: 13 mm
[14]; treatment concentration 0.3%
  Inhibitory zone diameter: 18 mm
[14]; treatment concentration 1.0%
  Inhibitory zone diameter: 19 mm
[15]
  MIC: 0.10%
[16]
  MIC: 0.01%
[17]
  Antibacterial effects: relatively high antibacterial effects
[18]; treatment concentration 0.1%
  Inhibitory zone diameter: 11 mm
[18]; treatment concentration 0.3%
  Inhibitory zone diameter: 13 mm
[18]; treatment concentration 1.0%
  Inhibitory zone diameter: 16 mm
[19]
  MIC: 0.04%
[20]
  MIC: 0.10%
[21]
  MIC: 0.008%
[22]; treatment concentration 0.03%
  Inhibitory zone diameter: 10.5 mm
[22]; treatment concentration 0.1%
  Inhibitory zone diameter: 13 mm
[22]; treatment concentration 0.3%
  Inhibitory zone diameter: 15 mm
[22]; treatment concentration 1.0%
  Inhibitory zone diameter: 16 mm
[23]; treatment concentration 0.01%
  Inhibitory zone diameter: 11.5 mm
[23]; treatment concentration 0.03%
  Inhibitory zone diameter: 13 mm
[23]; treatment concentration 0.1%
  Inhibitory zone diameter: 15 mm
[23]; treatment concentration 0.3%
  Inhibitory zone diameter: 16 mm
[23]; treatment concentration 1.0%
  Inhibitory zone diameter: 18 mm
[24]; treatment concentration 0.03%
  Inhibitory zone diameter: 11 mm
[24]; treatment concentration 0.1%
  Inhibitory zone diameter: 13 mm
[24]; treatment concentration 0.3%
  Inhibitory zone diameter: 16.5 mm
[24]; treatment concentration 1.0%
  Inhibitory zone diameter: 20 mm
[25]
  MIC: 0.10%
[26]; treatment concentration 0.1%
  Inhibitory zone diameter: 10.5 mm
[26]; treatment concentration 0.3%
  Inhibitory zone diameter: 13 mm
[26]; treatment concentration 1.0%
  Inhibitory zone diameter: 13 mm
[27]
  MIC: 0.01%
[28]; treatment concentration 0.03%
  Inhibitory zone diameter: 11 mm
[28]; treatment concentration 0.1%
  Inhibitory zone diameter: 12 mm
[28]; treatment concentration 0.3%
  Inhibitory zone diameter: 16 mm
[28]; treatment concentration 1.0%
  Inhibitory zone diameter: 18 mm
